Test results taken from US9247759B2, “Identification of human T2R receptors that respond to bitter compounds that elicit the bitter taste in compositions, and the use thereof in assays to identify compounds that inhibit (block) bitter taste in compositions and use thereof” (SENOMYX, INC., priority 2007, dated 2016).
Like-named read-outs stand apart in the source and are kept apart here.

Experiments:
hT2R16 = hT2R16 (Homo sapiens (Human), UniProt Q9NYV7); test: hT2R panel inhibition, transient HEK293 G16g44, agonist Salicin 1 mM; format: cell-based; details: HEK293, compound at 25 μM; receptor activated to EC80 with the corresponding agonist; read-out: screening result against bitter receptor 16
hT2R16, sequence (Q9NYV7 whole entry): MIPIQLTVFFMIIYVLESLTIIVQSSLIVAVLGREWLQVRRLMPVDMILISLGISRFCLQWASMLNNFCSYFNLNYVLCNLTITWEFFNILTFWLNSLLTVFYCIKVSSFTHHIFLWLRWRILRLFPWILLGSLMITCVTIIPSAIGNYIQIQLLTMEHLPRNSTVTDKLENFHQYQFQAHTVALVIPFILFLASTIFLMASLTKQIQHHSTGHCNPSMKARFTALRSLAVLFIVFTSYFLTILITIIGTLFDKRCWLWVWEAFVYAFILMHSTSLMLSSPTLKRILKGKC
Procedure: (§1) Specifically, in order to evaluate the inhibitory selectivity of the Compound C compound, this compound was tested against 22 human T2Rs which were deorphaned by Senomyx. These receptors and the bitter ligands that activate these human T2Rs are reported in earlier patent applications which are incorporated by reference herein. These 22 human T2Rs are hT2R1, 3, 4, 5, 7, 8, 9, 10, 13, 14, 16, 44, 51, 54, 55, 61, 63, 64, 65, 67, 71 and 75. The amino acid and nucleic acid sequences of all of these T2Rs may be found in these earlier patent applications. These human T2Rs were each individually transiently transfected into HEK293 cells that stably express the promiscuous G protein G16g44 and functional assays were effected using these receptors as disclosed in these same patent applications. […] The ligands were used at EC80 concentration levels. The list of bitter ligands utilized and the tested ligand concentrations are contained in Table 5 of this example.
(§2) Relating to the foregoing, FIG. 5 contains experimental results wherein Compound C was tested with different agonist compounds. The inhibition activity is represented by the reduction of receptor activity in the presence of Compound C. […] These 13 hT2Rs are hT2R3, 7, 10, 14, 16, 44, 51, 55, 61, 63, 64, 65, and 71.

hT2R10 = hT2R10 (Homo sapiens (Human), UniProt Q9NYW0); test: hT2R panel inhibition, transient HEK293 G16g44, agonist Strychnine 50 μM; format: cell-based; details: HEK293, read-out: screening result against bitter receptor 10, compound at 25 μM; receptor activated to EC80 with the corresponding agonist
hT2R10, sequence (Q9NYW0 whole entry): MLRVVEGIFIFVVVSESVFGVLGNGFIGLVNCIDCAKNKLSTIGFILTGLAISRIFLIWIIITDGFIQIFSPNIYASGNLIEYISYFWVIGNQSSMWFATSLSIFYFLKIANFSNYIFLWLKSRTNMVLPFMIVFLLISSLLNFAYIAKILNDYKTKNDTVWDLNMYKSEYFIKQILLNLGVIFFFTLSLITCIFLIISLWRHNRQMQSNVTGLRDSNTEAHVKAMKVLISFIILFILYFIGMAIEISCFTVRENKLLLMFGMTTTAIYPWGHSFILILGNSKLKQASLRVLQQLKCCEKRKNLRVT
Procedure: as §1, §2

hT2R63 = test: hT2R panel inhibition, transient HEK293 G16g44, agonist Caffeine 1 mM or Andrographolide 100 μM; format: cell-based, human; details: compound at 25 μM; receptor activated to EC80 with the corresponding agonist
Procedure: as §1, §2

hT2R44 = test: hT2R panel inhibition, transient HEK293 G16g44, agonist Denatonium 0.5 μM; format: cell-based, human; details: compound at 25 μM; receptor activated to EC80 with the corresponding agonist
Procedure: as §1, §2

hT2R54 = test: hT2R panel inhibition, transient HEK293 G16g44, agonist Ranitidine 5 mM; format: cell-based, human; details: compound at 25 μM; for screening result against bitter receptor 54: receptor activated to EC80 with the corresponding agonist
Procedure: as §1, §2

hT2R61 = hT2R61 (Homo sapiens (Human), UniProt P59537); test: hT2R panel inhibition, transient HEK293 G16g44, agonist Aristolochic Acid 25 nM; format: cell-based; details: HEK293, compound at 25 μM; receptor activated to EC80 with the corresponding agonist; read-out: screening result against bitter receptor 61
hT2R61, sequence (P59537 whole entry): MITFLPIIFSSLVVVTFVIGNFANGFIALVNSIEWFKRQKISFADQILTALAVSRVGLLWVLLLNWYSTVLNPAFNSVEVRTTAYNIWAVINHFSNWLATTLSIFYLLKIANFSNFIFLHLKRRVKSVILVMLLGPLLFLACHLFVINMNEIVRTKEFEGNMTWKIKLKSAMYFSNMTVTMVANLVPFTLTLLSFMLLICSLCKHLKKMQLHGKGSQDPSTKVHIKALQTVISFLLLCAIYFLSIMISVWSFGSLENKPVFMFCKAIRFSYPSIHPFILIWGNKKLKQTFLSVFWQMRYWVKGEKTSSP
Procedure: as §1, §2

hT2R65 = test: hT2R panel inhibition, transient HEK293 G16g44, agonist Oleuropein 1 mM; format: cell-based, human; details: compound at 25 μM; receptor activated to EC80 with the corresponding agonist
Procedure: as §1, §2

hT2R64 = hT2R64 (Homo sapiens (Human), UniProt P59538); test: hT2R panel inhibition, transient HEK293 G16g44, agonist Aristolochic Acid 1 μM; format: cell-based; details: HEK293, compound at 25 μM; receptor activated to EC80 with the corresponding agonist; read-out: screening result against bitter receptor 64
hT2R64, sequence (P59538 whole entry): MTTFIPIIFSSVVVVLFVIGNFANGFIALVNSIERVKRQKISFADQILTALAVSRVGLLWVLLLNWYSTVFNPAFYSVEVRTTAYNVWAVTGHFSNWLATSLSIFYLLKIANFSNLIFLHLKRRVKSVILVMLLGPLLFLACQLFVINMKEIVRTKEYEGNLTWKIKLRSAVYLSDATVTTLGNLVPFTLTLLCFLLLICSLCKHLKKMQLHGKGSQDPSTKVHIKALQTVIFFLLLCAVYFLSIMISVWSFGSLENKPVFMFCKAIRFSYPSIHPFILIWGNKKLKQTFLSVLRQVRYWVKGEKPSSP
Procedure: as §1, §2

hT2R71 = hT2R71 (Homo sapiens (Human), UniProt P59536); test: hT2R panel inhibition, transient HEK293 G16g44, agonist Picric Acid 10 μM; format: cell-based; details: HEK293, compound at 25 μM; receptor activated to EC80 with the corresponding agonist; read-out: screening result against bitter receptor 71
hT2R71, sequence (P59536 whole entry): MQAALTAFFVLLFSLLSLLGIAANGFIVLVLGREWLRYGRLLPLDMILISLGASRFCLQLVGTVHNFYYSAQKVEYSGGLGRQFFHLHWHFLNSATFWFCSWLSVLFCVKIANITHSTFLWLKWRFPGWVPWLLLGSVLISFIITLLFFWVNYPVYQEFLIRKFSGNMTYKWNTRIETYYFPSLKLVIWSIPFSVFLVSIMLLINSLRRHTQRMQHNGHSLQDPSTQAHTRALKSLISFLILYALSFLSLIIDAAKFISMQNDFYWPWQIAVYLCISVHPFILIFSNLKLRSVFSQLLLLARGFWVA
Procedure: as §1, §2

hT2R55 = test: hT2R panel inhibition, transient HEK293 G16g44, agonist Cinchonine 150 μM; format: cell-based, human; details: compound at 25 μM; for screening result against bitter receptor 55: receptor activated to EC80 with the corresponding agonist
Procedure: as §1, §2

hT2R3 = hT2R3 (Homo sapiens (Human), UniProt Q9NYW6); test: hT2R panel inhibition, transient HEK293 G16g44, agonist Chloroquine pH6.5 50 μM; format: cell-based; details: HEK293, compound at 25 μM; receptor activated to EC80 with the corresponding agonist; read-out: screening result against bitter receptor 3
hT2R3, sequence (Q9NYW6 whole entry): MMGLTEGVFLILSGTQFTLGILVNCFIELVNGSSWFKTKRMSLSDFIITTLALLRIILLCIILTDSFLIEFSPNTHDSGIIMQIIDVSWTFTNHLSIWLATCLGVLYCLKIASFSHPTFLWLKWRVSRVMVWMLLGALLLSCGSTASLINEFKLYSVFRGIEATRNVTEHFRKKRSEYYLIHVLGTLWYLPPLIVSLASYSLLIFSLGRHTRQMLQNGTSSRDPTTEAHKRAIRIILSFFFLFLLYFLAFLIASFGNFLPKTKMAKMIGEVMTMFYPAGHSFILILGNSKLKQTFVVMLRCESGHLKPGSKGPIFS
Procedure: as §1, §2

hT2R7 = hT2R7 (Homo sapiens (Human), UniProt Q9NYW3); test: hT2R panel inhibition, transient HEK293 G16g44, agonist Chloroquine pH6.5 10 mM; format: cell-based; details: HEK293, compound at 25 μM; receptor activated to EC80 with the corresponding agonist; read-out: screening result against bitter receptor 7
hT2R7, sequence (Q9NYW3 whole entry): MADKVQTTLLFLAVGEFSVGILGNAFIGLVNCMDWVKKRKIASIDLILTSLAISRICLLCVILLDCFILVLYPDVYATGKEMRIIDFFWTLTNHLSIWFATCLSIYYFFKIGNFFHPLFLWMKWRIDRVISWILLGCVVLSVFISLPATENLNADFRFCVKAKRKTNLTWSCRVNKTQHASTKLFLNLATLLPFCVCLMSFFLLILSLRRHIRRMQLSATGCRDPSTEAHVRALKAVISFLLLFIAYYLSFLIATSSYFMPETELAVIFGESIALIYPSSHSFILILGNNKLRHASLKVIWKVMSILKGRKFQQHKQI
Procedure: as §1, §2

hT2R5 = hT2R5 (Homo sapiens (Human), UniProt Q9NYW4); test: hT2R panel inhibition, transient HEK293 G16g44, agonist Picoline 10 mM; format: cell-based; details: HEK293, compound at 25 μM; receptor activated to EC80 with the corresponding agonist; read-out: screening result against bitter receptor 5
hT2R5, sequence (Q9NYW4 whole entry): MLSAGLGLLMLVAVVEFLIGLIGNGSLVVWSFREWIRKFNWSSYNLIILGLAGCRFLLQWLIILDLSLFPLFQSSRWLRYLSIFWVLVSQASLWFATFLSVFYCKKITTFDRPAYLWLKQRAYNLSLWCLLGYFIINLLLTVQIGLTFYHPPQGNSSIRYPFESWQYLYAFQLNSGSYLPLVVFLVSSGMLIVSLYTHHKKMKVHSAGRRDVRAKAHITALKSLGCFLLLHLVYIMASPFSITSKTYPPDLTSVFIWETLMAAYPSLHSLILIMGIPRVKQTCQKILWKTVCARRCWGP
Procedure: as §1, §2

hT2R14 [1] = biological target: T1, hT2R14 (Homo sapiens (Human), UniProt Q9NYV8); test: hT2R panel inhibition, transient HEK293 G16g44, agonist Aristolochic Acid 2 μM; format: cell-based; details: HEK293, compound at 25 μM
T1 sequence (Q9NYV8 whole entry): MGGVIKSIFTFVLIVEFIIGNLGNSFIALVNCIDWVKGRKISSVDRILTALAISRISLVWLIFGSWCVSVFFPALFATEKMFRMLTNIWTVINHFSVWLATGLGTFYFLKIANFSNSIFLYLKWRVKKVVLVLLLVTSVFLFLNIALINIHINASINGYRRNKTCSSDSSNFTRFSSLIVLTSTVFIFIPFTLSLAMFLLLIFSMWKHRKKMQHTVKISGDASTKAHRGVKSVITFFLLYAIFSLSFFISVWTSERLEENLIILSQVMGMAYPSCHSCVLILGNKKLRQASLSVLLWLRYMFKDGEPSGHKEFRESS
Procedure: as §1

hT2R67 = test: hT2R panel inhibition, transient HEK293 G16g44, agonist Andrographolide 5 μM; format: cell-based, human; details: compound at 25 μM; receptor activated to EC80 with the corresponding agonist
Procedure: as §1, §2

hT2R14 [2] = biological target: T1, hT2R14; test: hT2R14 antagonist high-throughput FLIPR assay, stable cell line with G16g44, agonist aristolochic acid; format: cell-based
Summary of the method: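 Compounds were co-applied with 3 μM aristolochic acid, a dose set to reach 70-80% of maximal hT2R14 activation. Read-out was FLIPR fluorescence in a stable HEK293 line co-expressing hT2R14 and G16g44.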

[3] = receptor activated to EC80 with the corresponding agonist, read-out: screening result against bitter receptor 14
[4] = read-out: IC50 on hT2R14 bitter receptor

Row | SMILES | inhibition at 25 µM (hT2R16) [%] | screening result against bitter receptor 63 (hT2R63) | screening result against bitter receptor 44 (hT2R44) | inhibition at 25 µM (hT2R61) [%] | screening result against bitter receptor 65 (hT2R65) | inhibition at 25 µM (hT2R64) [%] | inhibition at 25 µM (hT2R71) [%] | screening result against bitter receptor 55 (hT2R55) | inhibition at 25 µM (hT2R3) [%] | inhibition at 25 µM (hT2R7) [%] | inhibition at 25 µM (hT2R5) [%] | inhibition at 25 µM (hT2R14 [1]; [3]) [%] | screening result against bitter receptor 67 (hT2R67) | further results
1 | COc1ccc(CN(c2ccccc2)S(=O)(=O)c2ccc(C(=O)O)cc2)cc1 [Example 5-18, 4-(N-(4-methoxybenzyl)-N-phenylsulfamoyl)benzoic acid] | 40 to 60 | +++ (60% to 80% inhibition = +++) | +++ (60% to 80% inhibition = +++) | 60 to 80 | + (20% to 40% inhibition = +) | > 80 | 40 to 60 | ++++ (80% or greater inhibition = ++++) |  |  |  |  |  | inhibition at 25 µM (hT2R10): > 80%; screening result against bitter receptor 54 (hT2R54): ++ (40% to 60% inhibition = ++)
2 | COc1ccc(CN(Cc2ccccc2)S(=O)(=O)c2ccc(C(=O)O)cc2)cn1 [Example 5-90, 4-(N-benzyl-N-((6-methoxypyridin-3-yl)methyl)sulfamoyl)benzoic acid] | 20 to 40 | ++++ (80% or greater inhibition = ++++) | +++ (60% to 80% inhibition = +++) | > 80 | ++ (40% to 60% inhibition = ++) | 60 to 80 | 60 to 80 | +++ (60% to 80% inhibition = +++) | 40 to 60 | 60 to 80 | 20 to 40 | > 80 |  | inhibition at 25 µM (hT2R10): 40 to 60%
3 | COc1ccc(CN(Cc2cccnc2)S(=O)(=O)c2ccc(C(=O)O)cc2)cc1 [Example 5-88, 4-(N-(4-methoxybenzyl)-N-(pyridin-3-ylmethyl)sulfamoyl)benzoic acid] |  | +++ (60% to 80% inhibition = +++) | + (20% to 40% inhibition = +) | 40 to 60 |  | 20 to 40 | 20 to 40 |  | 20 to 40 |  |  | 20 to 40 | + (20% to 40% inhibition = +) | 
4 | COc1ccc(CN(CCc2ccccc2)S(=O)(=O)c2ccc(C(=O)O)cc2)cc1 [Example 5-19, 4-(N-(4-methoxybenzyl)-N-phenethylsulfamoyl)benzoic acid] | 20 to 40 |  | ++ (40% to 60% inhibition = ++) |  | + (20% to 40% inhibition = +) | > 80 | 20 to 40 | ++++ (80% or greater inhibition = ++++) | 20 to 40 |  | 20 to 40 | > 80 |  | inhibition at 25 µM (hT2R10): 20 to 40%; screening result against bitter receptor 54 (hT2R54): + (20% to 40% inhibition = +); IC50 (hT2R14 [2]; [4]): 4.58 µM
5 | COc1ccc(CN(Cc2ccc(C)o2)S(=O)(=O)c2ccc(C(=O)O)cc2)cc1 [Example 5-63, 4-(N-(4-methoxybenzyl)-N-((5-methylfuran-2-yl)methyl)sulfamoyl)benzoic acid] |  | +++ (60% to 80% inhibition = +++) |  |  |  | 40 to 60 | 20 to 40 | +++ (60% to 80% inhibition = +++) | 20 to 40 |  | 20 to 40 |  | + (20% to 40% inhibition = +) | 
6 | COc1ccc(CN(Cc2ccccn2)S(=O)(=O)c2ccc(C(=O)O)cc2)cc1 [Example 5-87, 4-(N-(4-methoxybenzyl)-N-(pyridin-2-ylmethyl)sulfamoyl)benzoic acid] |  | + (20% to 40% inhibition = +) |  | 40 to 60 |  | 20 to 40 |  |  |  |  |  |  | + (20% to 40% inhibition = +) | 
7 | COc1ccc(N(Cc2ccccc2)S(=O)(=O)c2ccc(C(=O)O)cc2)cc1 [Example 5-35, 4-(N-benzyl-N-(4-methoxyphenyl)sulfamoyl)benzoic acid] | 20 to 40 | +++ (60% to 80% inhibition = +++) | + (20% to 40% inhibition = +) | > 80 |  | 20 to 40 | 40 to 60 | +++ (60% to 80% inhibition = +++) | 20 to 40 | 20 to 40 | 20 to 40 | 20 to 40 |  | screening result against bitter receptor 54 (hT2R54): + (20% to 40% inhibition = +)
8 | COc1ccc(CN(Cc2ccccc2)S(=O)(=O)c2ccc(-c3nn[nH]n3)cc2)cc1 [Example 5-46, N-benzyl-N-(4-methoxybenzyl)-4-(1H-tetrazol-5-yl)benzene-sulfonamide] | 20 to 40 | +++ (60% to 80% inhibition = +++) | ++ (40% to 60% inhibition = ++) | > 80 | ++ (40% to 60% inhibition = ++) |  | 60 to 80 | + (20% to 40% inhibition = +) | 20 to 40 | 20 to 40 |  | > 80 | ++ (40% to 60% inhibition = ++) | IC50 (hT2R14 [2]; [4]): 3.67 µM
9 | O=C(O)c1ccc(S(=O)(=O)NCc2ccco2)cc1 [Example 5-54, 4-(N-(furan-2-ylmethyl)sulfamoyl)benzoic acid] |  |  |  |  |  |  |  |  | 20 to 40 |  |  |  | + (20% to 40% inhibition = +) | 
10 | Cn1c(=O)c2cc(S(=O)(=O)Nc3ccc4c(c3)OCCO4)ccc2n(C)c1=O [Example 6-6, N-(2,3-dihydrobenzo[b][1,4]dioxin-6-yl)-1,3-dimethyl-2,4-dioxo-1,2,3,4-tetrahydroquinazoline-6-sulfonamide] |  |  |  |  |  |  |  |  |  |  |  |  |  | inhibition of bitter receptor 54 (hT2R54; receptor activated to EC80 with agonist): + (20% to 40% inhibition = +); IC50 (hT2R14 [2]; Table D, read-out: hT2R14 IC50): 0.706 µM; inhibition at 25 µM (hT2R14 [1]; receptor activated to EC80 with agonist, read-out: inhibition of bitter receptor 14): > 80%; screening result against bitter receptor 55, printed as a number (meaning not defined) (hT2R55; receptor activated to EC80 with agonist, numeric cell): 210
11 | O=C(O)c1ccc(S(=O)(=O)N(Cc2ccccc2)Cc2ccc(O)cc2)cc1 [Example 5-99, 4-(N-benzyl-N-(4-hydroxybenzyl)sulfamoyl)benzoic acid] | 20 to 40 | ++++ (80% or greater inhibition = ++++) | +++ (60% to 80% inhibition = +++) | > 80 | ++ (40% to 60% inhibition = ++) | 60 to 80 | 60 to 80 | + (20% to 40% inhibition = +) |  | 20 to 40 |  | > 80 | ++ (40% to 60% inhibition = ++) | IC50 (hT2R14 [2]; Table C, read-out: hT2R14 IC50): 5.21 µM
